Measured values reported in the NIST ThermoML archive (doi:10.1021/acs.jced.6b01013).
Numbers after ± are expanded uncertainties.

Assay: xn = mol fraction of the nth substance listed
Settings: 100 kPa, Liquid, Pycnometric method

Row | SMILES | mass density (293.15 K, x2 = 0.75) [kg/m3] | mass density (293.15 K, x2 = 0.8) [kg/m3] | mass density (293.15 K, x2 = 0.83) [kg/m3] | mass density (303.15 K, x2 = 0.75) [kg/m3] | mass density (303.15 K, x2 = 0.8) [kg/m3] | mass density (303.15 K, x2 = 0.83) [kg/m3] | mass density (313.15 K, x2 = 0.75) [kg/m3] | mass density (313.15 K, x2 = 0.8) [kg/m3] | mass density (313.15 K, x2 = 0.83) [kg/m3] | mass density (323.15 K, x2 = 0.75) [kg/m3] | mass density (323.15 K, x2 = 0.8) [kg/m3] | mass density (323.15 K, x2 = 0.83) [kg/m3] | further results
1 | COc1ccccc1O [2-methoxyphenol] + C[N+](C)(C)CCO.[Cl-] |  |  |  |  |  |  |  |  |  |  |  |  | mass density (293.15 K, x1 = 0.75): 1153.3 ± 4 kg/m3; mass density (293.15 K, x1 = 0.8): 1155.6 ± 4 kg/m3; mass density (293.15 K, x1 = 0.83): 1149.7 ± 4.1 kg/m3; mass density (303.15 K, x1 = 0.75): 1147.5 ± 4 kg/m3; mass density (303.15 K, x1 = 0.8): 1147.7 ± 4 kg/m3; mass density (303.15 K, x1 = 0.83): 1143.4 ± 4.1 kg/m3; mass density (313.15 K, x1 = 0.75): 1141.2 ± 4 kg/m3; mass density (313.15 K, x1 = 0.8): 1140.6 ± 4 kg/m3; mass density (313.15 K, x1 = 0.83): 1136.2 ± 4.1 kg/m3; mass density (323.15 K, x1 = 0.75): 1134.1 ± 4.1 kg/m3; mass density (323.15 K, x1 = 0.8): 1132.4 ± 4.1 kg/m3; mass density (323.15 K, x1 = 0.83): 1128 ± 4.1 kg/m3
2 | CC(=O)OCC[N+](C)(C)C.[Cl-] [acetylcholine chloride] + COc1ccccc1O | 1149.6 ± 4 | 1149.3 ± 4 | 1152.7 ± 4 | 1146.1 ± 4 | 1144.8 ± 4 | 1148.1 ± 4 | 1139.8 ± 4 | 1138.1 ± 4 | 1142.5 ± 4 | 1133.8 ± 4 | 1131.7 ± 4 | 1135.1 ± 4 | 
3 | CCNCC.Cl [diethylammonium chloride] + COc1ccccc1O | 1095.4 ± 4 | 1102.4 ± 4 | 1106.1 ± 4 | 1093.1 ± 4 | 1098.3 ± 4 | 1103.5 ± 4 | 1083.7 ± 4 | 1089.8 ± 4 | 1093.7 ± 4 | 1075.8 ± 4.1 | 1084.1 ± 4 | 1083.5 ± 4 | 
